Results as given in US11351168B1 (Celgene CAR LLC, priority 2008, dated 2022).
pIC50: −log10 of the molar value.

Tested on: BTK signaling in Ramos cells
Assay: BTK Ramos cellular assay (phosphorylation of BTK substrate PLCγ2)
Type: cell-based, human
Conditions: Homo sapiens, 1 hour compound, anti-IgM stimulation, read-out: BTK Inhibition (Ramos cellular)
Description: Compounds I-2, I-4, and I-7 were assayed in Ramos human Burkitt lymphoma cells. Ramos cells were grown in suspension in T225 flasks, spun down, resuspended in 50 ml serum-free media and incubated for 1 hour. Compound was added to Ramos cells in serum free media to a final concentration of 1, 0.1, 0.01, or 0.001 μM. Ramos cells were incubated with compound for 1 hour, washed again and resuspended in 100 ul serum-free media. Cells were then stimulated with 1 μg of goat F(ab′)2 Anti-Human IgM and incubated on ice for 10 minutes to activate B cell receptor signaling pathways. After 10 minutes, the cells were washed once with PBS and then lysed on ice with Invitrogen Cell Extraction buffer. 16 μg total protein from lysates were loaded on gel and blots were probed for phosphorylation of the BTK substrate PLCγ2.

| pIC50 | SMILES |
| --- | --- |
| 7.00 to 8.00 | C=CC(=O)Nc1cccc(Nc2ncc(F)c(Nc3cccc(C)c3)n2)c1 [Compound I-3, N-(3-(5-fluoro-4-(m-tolylamino)pyrimidin-2-ylamino)phenyl) acrylamide] |
| 6.00 to 7.00 | C=CC(=O)Nc1ccc(C)c(Nc2ncc(C)c(Nc3cccc(C)c3)n2)c1 [Compound I-8, N-(4-methyl-3-(5-methyl-4-(m-tolylamino)pyrimidin-2-ylamino)phenyl)acrylamide] |
| 7.00 to 8.00 | C=CC(=O)N1CCCC(Nc2nc(Nc3ccccc3)ncc2C)C1 (stereo not drawn) [Compound I-27] |
| > 8.00 | C=CC(=O)Nc1cccc(Nc2nc(Nc3cccc(S(N)(=O)=O)c3)ncc2C)c1 [Compound I-33, N-(3-(5-methyl-2-(3-sulfamoylphenylamino)pyrimidin-4-ylamino)phenyl)acrylamide] |
| 7.00 to 8.00 | C=CC(=O)Nc1ccc(Nc2nc(Nc3ccccc3)ncc2C)cc1 [Compound I-39, N-(4-(5-methyl-2-(phenylamino)pyrimidin-4-ylamino)phenyl) acrylamide] |
| 7.00 to 8.00 | C=CC(=O)N1CCc2cc(Nc3nc(Nc4cccc(S(N)(=O)=O)c4)ncc3C)ccc2C1 [Compound I-40, 3-(4-(2-acryloyl-1,2,3,4-tetrahydroisoquinolin-6-ylamino)-5-methylpyrimidin-2-ylamino)benzenesulfonamide] |
| > 8.00 | C=CC(=O)Nc1cccc(Nc2nc(Nc3cccc(OCCCNC(=O)OC(C)(C)C)c3)ncc2C)c1 [Compound I-45, tert-butyl 3-(3-(4-(3-acrylamidophenylamino)-5-methylpyrimidin-2-ylamino)phenoxy)propylcarbamate] |
| > 8.00 | C=CC(=O)Nc1cccc(Nc2nc(Nc3ccc(N(C)CCOC)nc3)ncc2F)c1 [Compound I-77, N-(3-(5-fluoro-2-(6-((2-methoxyethyl)(methyl)amino)pyridin-3-ylamino)pyrimidin-4-ylamino)phenyl)acrylamide] |
| > 8.00 | C=CC(=O)Nc1cccc(Nc2nc(Nc3ccc(OCC4CCN(C)CC4)nc3)ncc2F)c1 [Compound I-78, N-(3-(5-fluoro-2-(6-((1-methylpiperidin-4-yl)methoxy)pyridin-3-ylamino)pyrimidin-4-ylamino)phenyl)acrylamide] |
| > 8.00 | C=CC(=O)Nc1cccc(Nc2nc(Nc3ccc(OCCCS(C)(=O)=O)nc3)ncc2F)c1 [Compound I-80, N-(3-(5-fluoro-2-(6-(3-(methylsulfonyl)propoxy)pyridin-3-ylamino)pyrimidin-4-ylamino)phenyl)acrylamide] |
| > 8.00 | C=CC(=O)Nc1cccc(Nc2nc(Nc3ccc(OCc4ccccn4)c(Cl)c3)ncc2F)c1 [Compound I-86, N-(3-(2-(3-chloro-4-(pyridin-2-ylmethoxy)phenylamino)-5-fluoropyrimidin-4-ylamino)phenyl)acrylamide] |
| > 8.00 | C=CC(=O)Nc1cc(Nc2nc(Nc3ccc(OCCOC)cc3)ncc2F)ccc1F [Compound I-87, N-(2-fluoro-5-(5-fluoro-2-(4-(2-methoxyethoxy)phenylamino)pyrimidin-4-ylamino)phenyl)acrylamide] |
| > 8.00 | [2H]C([2H])([2H])Oc1ccc(Nc2ncc(F)c(Nc3cccc(NC(=O)C=C)c3)n2)cn1 [Compound I-95, N-(3-(5-fluoro-2-(6-(trideutereomethoxy)pyridine-3-ylamino)pyrimidin-4-ylamino)phenyl)acrylamide] |
| > 8.00 | C=CC(=O)Nc1cccc(Nc2nc(Nc3ccc(OCCOC)nc3)ncc2F)c1 [Compound I-103, N-(3-(5-fluoro-2-(6-(2-methoxyethoxy)pyridine-3-ylamino)pyrimidin-4-ylamino)phenyl)acrylamide] |
| > 8.00 | C=CC(=O)Nc1cccc(Nc2nc(Nc3cccc(OCCO)c3)ncc2F)c1 [Compound I-105, N-(3-(5-fluoro-2-(3-(2-hydroxyethoxy)phenylamino)pyrimidin-4-ylamino)phenyl)acrylamide] |
| 7.00 to 8.00 | C=CC(=O)Nc1cc(Nc2nc(Nc3ccc(OC(C)C)nc3)ncc2F)ccc1Cl [Compound I-107, N-(2-chloro-5-(5-fluoro-2-(6-isopropoxypyridin-3-ylamino)pyrimidin-4-ylamino)phenyl)acrylamide] |
| 7.00 to 8.00 | C=CC(=O)Nc1cc(Nc2nc(Nc3ccc(OCCOC)cc3)ncc2F)ccc1Cl [Compound I-108, N-(2-chloro-5-(5-fluoro-2-(4-(2-methoxyethoxy)phenylamino)pyrimidin-4-ylamino)phenyl)acrylamide] |
| 7.00 to 8.00 | C=CC(=O)Nc1cccc(Nc2nc(Nc3cccc(OCC(=O)N4CCOCC4)c3)ncc2F)c1 [Compound I-110, N-(3-(5-fluoro-2-(3-(2-morpholino-2-oxoethoxy)phenylamino)pyrimidin-4-ylamino)phenyl)acrylamide] |

| pIC50 | SMILES |
| --- | --- |
| 7.00 to 8.00 | C=CC(=O)N(C)Cc1ccc(Nc2nc(Nc3ccc(OC)nc3)ncc2F)cc1 [Compound I-114, N-(4-(5-fluoro-2-(6-methoxypyridin-3-ylamino)pyrimidin-4-ylamino)benzyl)-N-methylacrylamide] |
| > 8.00 | C=CC(=O)Nc1cccc(Nc2nc(Nc3cccc(OCC(C)(C)O)c3)ncc2F)c1 [Compound I-118, N-(3-(5-fluoro-2-(3-(2-hydroxy-2-methylpropoxy)phenylamino)pyrimidin-4-ylamino)phenyl)acrylamide] |
| 7.00 to 8.00 | C=CC(=O)Nc1cccc(Nc2nc(Nc3ccc(OCCO)nc3)ncc2C(C)=O)c1 [Compound I-121, N-(3-{5-Acetyl-2-[6-(2-hydroxy-ethoxy)-pyridin-3-ylamino]-pyrimidin-4-ylamino}-phenyl)-acrylamide] |
| > 8.00 | C=CC(=O)Nc1cccc(Nc2nc(Nc3ccc(OCCOC)nc3)ncc2C(C)=O)c1 [Compound I-122, N-(3-{5-Acetyl-2-[6-(2-methoxy-ethoxy)-pyridin-3-ylamino]-pyrimidin-4-ylamino}-phenyl)-acrylamide] |
| > 8.00 | C=CC(=O)Nc1cccc(Nc2nc(Nc3ccc(OCCOC)cc3)ncc2C(C)=O)c1 [Compound I-124, N-(3-{5-Acetyl-2-[4-(2-methoxy-ethoxy)-phenylamino]-pyrimidin-4-ylamino}-phenyl)-acrylamide] |
| 7.00 to 8.00 | COc1ccc(Nc2ncc(F)c(Nc3cccc(NC(=O)/C=C/CN(C)C)c3)n2)cn1 [Compound I-125, (E)-4-(dimethylamino)-N-(3-(5-fluoro-2-(6-methoxypyridin-3-ylamino)pyrimidin-4-ylamino)phenyl)but-2-enamide] |
| 7.00 to 8.00 | C=CC(=O)Nc1cccc(Nc2nc(Nc3ccc4c(c3)N(C)CCO4)ncc2F)c1 [Compound I-126, N-(3-(2-(4-methyl-2,3-dihydrobenzo[1,4]oxazin-6-yl)amino-5-fluoropyrimidin-4-ylamino)phenyl)acrylamide] |
| 7.00 to 8.00 | C=CC(=O)N1CCOc2ccc(Nc3nc(Nc4ccc(OCCO)nc4)ncc3C(C)=O)cc21 [Compound I-128, 1-(6-{5-Acetyl-2-[6-(2-hydroxy-ethoxy)-pyridin-3-ylamino]-pyrimidin-4-ylamino}-2,3-dihydro-benzo[1,4]oxazin-4-yl)-propenone] |
| > 8.00 | C=CC(=O)N1CCOc2ccc(Nc3nc(Nc4ccc5c(c4)CC(=O)N5)ncc3C(C)=O)cc21 [Compound I-129, 5-[5-Acetyl-4-(4-acryloyl-3,4-dihydro-2H-benzo[1,4]oxazin-6-ylamino)-pyrimidin-2-ylamino]-1,3-dihydro-indol-2-one] |
| > 8.00 | C=CC(=O)Nc1cccc(Oc2nc(Nc3ccc(OCCOC)cc3)ncc2C2CC2)c1 [Compound I-131, N-(3-(5-cyclopropyl-2-(4-(2-methoxyethoxy)phenylamino)pyrimidin-4-yloxy)phenyl)acrylamide] |
| 7.00 to 8.00 | C=CC(=O)Nc1cccc(Nc2nc(Nc3cc(OC)c(OC)c(OC)c3)ncc2F)c1 [Compound I-133, 4-(3-acrylamidophenylamino)-5-fluoro-2-(3,4,5-trimethoxyphenylamino)-pyrimidine] |
| 7.00 to 8.00 | C=CC(=O)Nc1cccc(Nc2nc(Nc3ccc(OC)c(OC)c3)ncc2F)c1 [Compound I-134, 4-(3acrylamidophenylamino)-5-fluoro-2-(3,4-dimethoxyphenylamino)-pyrimidine] |
| 7.00 to 8.00 | C=CC(=O)N1CCC[C@@H](Nc2nc(Nc3cccc(OCCN4CCOCC4)c3)ncc2F)C1 [Compound I-135, (R)-1-(3-(5-fluoro-2-(3-(2-morpholinoethoxy)phenylamino)pyrimidin-4-ylamino)piperidin-1-yl)prop-2-en-1-one] |
| > 8.00 | C=CC(=O)Nc1cccc(Nc2nc(Nc3cccc(OCCCS(C)(=O)=O)c3)ncc2F)c1 [Compound I-138, 4-(3-acrylamidophenylamino)-5-fluoro-2-(3-(3-(methylsulfonyl)propoxy)phenylamino)-pyrimidine] |
| 7.00 to 8.00 | C=CC(=O)Nc1cccc(Nc2nc(Nc3ccc(OCCOC)cc3)ncc2C2CC2)c1 [Compound I-139, N-(3-(5-cyclopropyl-2-(4-(2-methoxyethoxy)phenylamino)pyrimidin-4-ylamino)phenyl)acrylamide] |
| 7.00 to 8.00 | C=CC(=O)Nc1cccc(Nc2nc(Nc3ccc4c(c3)N(S(C)(=O)=O)CCO4)ncc2F)c1 [Compound I-140, N-(3-(2-(4-methylsulfonyl-2,3-dihydrobenzo[1,4]oxazin-6-yl)amino-5-fluoropyrimidin-4-ylamino)phenyl)acrylamide] |
| 7.00 to 8.00 | C=CC(=O)N1CCOc2ccc(Nc3nc(Nc4ccc(N(C)C(=O)C(F)(F)F)nc4)ncc3C(C)=O)cc21 [Compound I-142, N-(5-(5-acetyl-4-(4-acryloyl-3,4-dihydro-2H-benzo[b][1,4]oxazin-6-ylamino)pyrimidin-2-ylamino)pyridin-2-yl)-2,2,2-trifluoro-N-methylacetamide] |

| SMILES | pIC50 |
| --- | --- |
| C=CC(=O)Nc1cccc(Nc2nc(Nc3ccc(OC4CCC4)nc3)ncc2F)c1 [Compound I-79, N-(3-(2-(6-cyclobutoxypyridin-3-ylamino)-5-fluoropyrimidin-4-ylamino)phenyl)acrylamide] | > 8.00 |
